Experimental findings from a melting point compilation (Tetko et al.) are described below.

The melting point is the temperature, or range, at which the solid turns liquid.

`CCOC(=O)c1nn(-c2ccc(F)cc2)c(-c2cccs2)c1S(=O)(=O)c1ccccc1` yielded a melting point of 151 °C.
For `COc1ccc(-c2oc3c(C)c(OC)cc(OC)c3c(=O)c2C)cc1OC` the value was 217 °C; for `O=c1c(Cl)c(Cl)cnn1-c1ccccc1`, 163 to 164 °C; for `CC(C)(Oc1ccc(Cl)cc1)C(=O)OCc1cccnc1`, 48.5 °C.
For `N#Cc1ccc2nonc2c1` the value was 86 to 88 °C; for `CCNc1c(C=O)c(=O)oc2ccccc12`, 181 °C.
As for `Cc1cc(C)c([N+](=O)[O-])c(F)c1`, the figure is 56 °C; as for `COc1cccc(C2(O)CCCCC2CN(C)C)c1` (stereo unspecified), 180 °C; as for `COc1ccccc1CN=C=S`, 28 °C.
`c1cc(-c2cnco2)ccn1`: the melting point was 127 to 128 °C.
`CC(C)(C)C1=NNC(=O)C1`: the melting point amounted to 210 °C.
As for `Cc1cccc(C)c1NC(=O)C=CC(=O)O`, the figure is 169 °C; as for `CCOC(=O)c1c(NC(=S)Nc2ccccc2)sc2c1CCCC2`, 189 to 191 °C.
`C=C=N`: the melting point was -78 °C.
As for `CC(=NOCc1cccc(C(=O)O)c1)c1ccc(Cl)cc1`, the figure is 154 to 157 °C; as for `OCC(F)(F)C(F)(F)CO`, 85 to 87 °C.
As for `Nc1cccc([N+](=O)[O-])c1[N+](=O)[O-]`, the figure is 122 °C.
For `N#CCOc1ccc(Cl)cc1Cl` the value was 46 to 48 °C; for `CCNS(=O)(=O)C(F)(F)C(F)(F)C(F)(F)C(F)(F)C(F)(F)C(F)(F)C(F)(F)C(F)(F)F`, 96 °C; for `CCCCCCCCCCCCCCCC(=O)Oc1ccc(N=Cc2cccnc2)cc1`, 87.6 °C.
For `Cc1cccn2c(=O)c(C(=O)c3ccccc3)cnc12`, the melting point lay in the range of 146 to 147 °C.
The compound `O=C1C(C(O)c2ccccc2)C(C(F)(F)F)=NN1c1ccccc1` (stereo unspecified) had a melting point of 258 °C.
For `C=CF` the value was -160 °C; for `CC(=O)C1(O)CCC2C3C=C(C)C4=CC(=O)CCC4(C)C3CCC21C` (stereo unspecified), 219 °C.
In the case of `COc1ccc(/N=N/c2c(N)nn3c(C)cc(=O)[nH]c23)cc1`, the melting point stood at 276 °C.
For `Cc1cc(F)ccc1CC#N` the value was 26 °C; for `CC1CCSCC1`, -28 °C.
Compound `CN1N=C(C(F)(F)F)CC1=O` displayed a melting point of 179 °C.
On to `FC(F)(F)c1ccc(Br)nc1`, for which the melting point lay within 46 to 47 °C.
For `CC(=O)OC1CCC(C(C)(C)C)CC1` (stereo unspecified) the value was -50 °C; for `O=Cc1c(-c2ccc(Cl)cc2)[nH]c2ccccc12`, 257 to 258 °C; for `C=Cc1ccc(C)cc1C`, -64 °C.
For `CCOC(=O)c1c(C)cc(=O)oc1C` the value was 17 to 18 °C.
`COC(=O)C=P(c1ccccc1)(c1ccccc1)c1ccccc1` came in with a melting point of 164 to 169 °C.
For `N#Cc1c(C(F)(F)F)cc(-c2cccnc2)[nH]c1=O` the value was 280 to 281 °C; for `C/C(=N\O)c1cc(C(C)(C)C)c(O)c(C(C)(C)C)c1`, 200 to 201 °C; for `CNc1ncnc(Cl)c1[N+](=O)[O-]`, 134 to 139 °C.
As for `O=C1C2CC(CN3CCCCC23)C2CCCCN12` (stereo unspecified), the figure is 111 °C; as for `O=S(=O)(O)CC(O)CN1CCOCC1` (stereo unspecified), 273 to 274 °C.
As for `O=C(C=Cc1ccccc1)c1ccc(F)cc1`, the figure is 79 to 80 °C.
On to `CCn1c2ccccc2c2cc(N)ccc21`, for which the melting point was found to be 99 °C.
For `COC(=O)c1sc(C(C)(C)C)cc1N` the value was 94 to 95 °C.
As for `CN(C)Cc1ncccc1O`, the figure is 55 to 60 °C; as for `O=C1CC(C(=O)O)CC(=O)C1=C(O)C1CC1` (stereo unspecified), 144 °C.
As for `Nc1ccc(Cl)c(Cl)c1Cl`, the figure is 73 °C; as for `NCCOS(=O)(=O)O`, 277 to 280 °C; as for `OCCN(CCO)C(CO)(CO)CO`, 104 °C.
Take `CC12CC3CC(Br)(C1)CC(C(=O)O)(C3)C2` (stereo unspecified): the melting point was in the range of 118 to 120 °C.
For `CCOC(=O)c1cc2c(=O)oc3ccccc3c2nc1NC` the value was 232 to 233 °C; for `O=S(=O)(Cl)c1ccc(Br)cc1Cl`, 79 °C.
As for `O=C1OC(=O)C2=C1SCCS2`, the figure is 213 to 214 °C.
For `CN(c1c(F)c(F)c(F)c(F)c1F)N(O)O` the value was 39.5 °C; for `CC(CCC(=O)O)C1CCC2C3CCC4CC(O)CCC4(C)C3CC(O)C12C` (stereo unspecified), 177 °C.
Regarding `C[C@H]1NC(=O)O[C@H]1c1ccccc1`, the melting point was 118 to 121 °C.
For `NC(=O)/C(=C\c1ccccc1O)c1nc2ccccc2s1` the value was 210 °C; for `C=C1CC2CC(OC(=O)c3ccccc3)CCC2(C)C2CCC3(C)C(OC(=O)c4ccccc4)CCC3C12` (stereo unspecified), 192 °C; for `Nc1ccc(C=C/C(=N/O)c2ccccc2)cc1`, 138 to 139 °C.
In turn, `Cc1cc(C)c(CC(=O)c2cc3cc(Br)ccc3o2)c(C)c1` had a melting point of 123 to 124 °C.
For `CC(C)(C)C(=O)Nc1ccncc1C=O` the value was 60 to 64 °C; for `CC(C)(Oc1ccc(Cl)cc1)C(=O)OCCCOC(=O)C(C)(C)Oc1ccc(Cl)cc1`, 52 °C.
As for `CCCC(CCC)C(C(=O)O)C(=O)OCC` (stereo unspecified), the figure is 30 to 34 °C; as for `O=C(Nc1ccc(Cl)cc1)c1cccnc1Cl`, 148 to 149 °C; as for `COc1ccc2c(c1OC)C(=O)OC2C1c2cc3c(cc2CCN1C)OCO3` (stereo unspecified), 132 °C.
For `O=S(=O)(c1ccc(Cl)cc1)C(F)(F)C(F)Cl` (stereo unspecified) the value was 55 to 57 °C; for `Cc1ccccc1OC(=O)Oc1ccccc1C`, 60 °C.
`COC1=C(OC)/C(=C/CN=[N+]=[N-])OC1=O`: the melting point fell in the range of 55 to 57 °C.
As for `COC(=O)c1ccc(NS(=O)(=O)c2ccc(C)cc2)c(NS(=O)(=O)c2ccc(C)cc2)c1`, the figure is 180 to 182 °C; as for `COc1c(C)c(C)c(OC)c2c1CC2=O`, 109 °C; as for `OCC1CCCCN1` (stereo unspecified), 69 °C.
As for `CC(O)(c1ccc(Cl)cc1)c1ccc(Cl)cc1`, the figure is 70 °C; as for `CCC1(O)CCC2(C)C(CCC3C2CCC2(C)C3CCC23OCCO3)C1` (stereo unspecified), 127 °C.
For `CN1CCOc2cc(S(=O)(=O)Cl)cnc21` the value was 130 to 132 °C; for `CSc1nc(N)nc(-c2ccncc2)n1`, 234 to 237 °C; for `Oc1cccc(I)c1`, 118 °C.
As for `Clc1cc2c(cc1Cl)-c1cc(Cl)c(Cl)cc1-2`, the melting point is 237 to 240 °C.
`O=[N+]([O-])c1cc([N+](=O)[O-])c(C(Br)=Cc2ccccc2)cc1/C=C\c1ccccc1` displayed a melting point of 194 to 196 °C.
Regarding `COC(=O)C1(S(=O)(=O)c2ccccc2)CCC1`, the melting point amounted to 108 °C.
Compound `COc1cc2c(c(OC)c1OC)-c1ccc(SC)c(=O)cc1C(NC(C)=O)CC2` (stereo unspecified) registered a melting point of 193 °C.
Take `O=C(O)[C@H]1COCN1C(=O)OCc1ccccc1`: the melting point fell in the range of 70 to 74 °C.
For `CC1=C(C(=O)Nc2ccccc2)CCCO1` the value was 110 °C; for `Cc1ccc(-c2csc(/C(C#N)=N\Nc3ccc(Cl)cc3)n2)cc1`, 172 °C; for `Fc1ccc(C(=S)N2CCCCC2)cc1`, 77 °C.
For `COC1C=CC2=CCN3CCC4=C(CC(=O)OC4)C23C1` (stereo unspecified), the melting point came to 99.5 °C.
As for `c1cc(-c2nnn[nH]2)ccn1`, the figure is 265 to 267 °C.
As for `CCC1(CC)C(=O)C=CNC1=O`, the figure is 90.7 °C.
For `COC(=O)C1CC(=O)c2ccccc21` (stereo unspecified) the value was 45 °C; for `CCCCOc1ccc(NC(=O)C(F)(F)C(F)(F)C(F)(F)C(F)(F)C(F)(F)C(F)(F)C(F)(F)C(F)(F)F)cc1`, 136 to 138 °C.
In turn, `O=C(N(c1ccccc1)c1ccccc1)C(F)(F)C(F)(F)C(F)(F)C(F)(F)C(F)(F)C(F)(F)C(F)(F)C(F)(F)F` had a melting point of 92 °C.
For `O=C1OC(=O)C2C3C=CC(C12)C1C(=O)OC(=O)C31` (stereo unspecified) the value was 360 °C.
For `O=C(Nc1ccc(Br)cc1)c1cc(Br)cc(Br)c1O` the value was 227 °C.
As for `CCOC(CC(OCC)OCC)OCC`, the figure is -90 °C.
For the compound `O=Cc1cccc2cnccc12`, the melting point was 115 °C.
In turn, `ClC(Cl)(Cl)C(Cl)(Cl)Cl` registered a melting point of 187 °C.
For `NC(=O)NN=C(O)/C=C/c1ccccc1` the value was 197 to 198 °C.
The compound `O=C(O)C=Cc1ccc(Oc2ccccc2)nc1` had a melting point of 204 to 206 °C.
For `CCN(CC)C(=O)C(Cl)=C(C)OP(=O)(OC)OC` the value was -45 °C.
For `CC(C)(C)c1cc(C(C)(C)C)c(N=O)c(C(C)(C)C)c1` the value was 170 to 173 °C; for `CC(C=Cc1ccc(C=CC(C)=NO)cc1)=NO`, 280 °C; for `NCCCC(O)(P(=O)(O)O)P(=O)(O)O`, 234 °C.
For `COc1ccc(C(N)=NO)c2ccccc12` the value was 175 to 176 °C; for `N=C(N)NC(N)=S`, 172 °C.
`COc1cscc1C(N)=O`: the melting point was in the range of 120 to 121 °C.
For `COc1cccc(CNC(N)=S)c1` the value was 91 to 93 °C.
Compound `OCC(O)CI` (stereo unspecified) displayed a melting point of 48.5 °C.
As for `CC1=C(C)CC(Cl)(Cl)C(=O)C(Cl)(Cl)C1`, the figure is 91 °C; as for `Cc1ccccc1C(=O)Cc1ccccc1C(=O)O`, 138 °C; as for `Cc1nn(C)c2sc(C(=O)Cl)cc12`, 165 to 167 °C.
As for `CN1CCN(C2=Nc3ccccc3Cc3ccccc32)CC1`, the figure is 137 °C; as for `O=C(O)C(C(F)(F)F)C(F)(F)F`, 52 °C; as for `C#CCOc1c(Cl)cccc1Cl`, 43.5 °C.
Regarding `COc1ccc2ccccc2c1C`, the melting point was 126 °C.
